Where a SMILES comes first, the peptide text is derived from it. Bridges are numbered along the chain shown (N, C = ends). [ ]: non-standard residue; d: D form. 2Nal = N[C@@H](Cc1ccc2ccccc2c1)C(=O)O; d2Nal = N[C@H](Cc1ccc2ccccc2c1)C(=O)O
Legend:
muscarinic cholinergic = experiment: Muscarinic cholinergic membrane receptor assay; type: binding, rat; conditions: at 1 µM
endothelinA = target: T1, endothelinA (Rattus norvegicus, UniProt P26684); experiment: EtA membrane receptor assay (A10 smooth muscle cells); type: binding; conditions: at 1 µM
T1 construct: A10 smooth muscle cells (EtA membrane receptor assay); endogenous in cells; host or cells: A10 smooth muscle cells (membranes)

sigma opioid receptor = target: T2, sigma opioid receptor (Cavia porcellus, UniProt Q60492); experiment: sigma opioid membrane receptor assay; type: binding, guinea pig; conditions: at 1 µM
T2 construct: guinea pig cerebral (N1, histamine H1, and sigma opioid membrane receptor assays); from tissue; host or cells: guinea pig cerebral membranes

[1] = target: T3, N-methyl D-aspartate receptors (Rattus norvegicus, UniProt P35439); experiment: N-methyl-D-aspartate membrane receptor assay; type: binding; conditions: at 1 µM
T3 construct: from tissue; host or cells: rat cerebral cortex membranes

CCKA receptors = target: T4, CCKA receptors (Rattus norvegicus, UniProt P30551); experiment: CCKA receptor assay (125I-CCK-8, rat pancreatic membranes); type: binding; conditions: at 1 µM
T4 construct: rat pancreas (CCKA receptor assay); from tissue; host or cells: rat pancreatic membranes

[2] = system: endothelin-1-simulated increases in [^3H]IP; experiment: Endothelin-1-stimulated [3H]IP in C-6 glioblastoma cells; type: cell-based, rat; conditions: for effect on endothelin-1-simulated increases in [^3H]IP in C-6 cells: Table 3
Experimental: Total phosphoinositides in C-6 cells and in NMB-R transfected cells were determined as described previously, with minor modifications [Benya, R. V. et al. Mol. Pharmacol. 42:1058 (1992); and Wang, L-H. et al. Biochem. J. 286:641 (1992)]. Cells were grown to confluence in 24-well plates and then loaded with 100 µCi/ml myo-[2-^3H]inositol in Dulbecco's modified essential medium with 2% fetal bovine serum at 37°C for 48 hrs. Cells were washed and incubated in phosphoinositide buffer (standard buffer additionally containing 10 mM LiCl, 20 mM HEPES, 2 mM CaCl2, 2% BSA, and 1.2 mM MgSO4) for 15 min and then for 60 min at 37°C with agonists at various concentrations or with 3 nM NMB (a half-maximal effective concentration) and possible antagonists at different concentrations. Reactions were halted using ice-cold 1% HCl in methanol, and the inositol phosphates (IP) were isolated as described previously [Bologna, M. et al. Cancer 63:1714 (1989); and Endo, T. et al. J. Endocrinol. 131:313 (1991)]. Briefly, after loading of the anion exchange column, free [^3H]glycerophosphorylinositol was removed by washing with 5 mM disodium tetraborate in 60 mM sodium formate. Total [^3H]inositol phosphates were then eluted using 100 mM formic acid in 1.0 M ammonium formate as described previously [Benya, R. V. et al. Mol. Pharmacol. 42:1058 (1992); and Wang, L-H. et al. Biochem. J. 286:641 (1992)].

delta opioid = target: T5, delta opioid (Rattus norvegicus, UniProt P33533); experiment: delta opioid membrane assay; type: binding; conditions: at 1 µM
T5 construct: rat forebrain (TRH, mu and delta opioid membrane assays); from tissue; host or cells: rat forebrain membranes

CCKB = target: T6, CCKB (Rattus norvegicus, UniProt P30553); experiment: CCKB membrane receptor assay; type: binding; conditions: at 1 µM
T6 construct: rat cerebral cortex (CCKB, PYY, neurotensin); from tissue; host or cells: rat cerebral cortex membranes

dopamine2 = target: T7, dopamine2 (Rattus norvegicus, UniProt P61169); experiment: dopamine2 membrane receptor assay; type: binding; conditions: at 1 µM
T7 construct: rat corpus striatum (dopamine1 and dopamine2 membrane receptor assays); from tissue; host or cells: rat corpus striatum membranes

TRH receptor = experiment: TRH membrane assay; type: binding, rat; conditions: at 1 µM
bradykinin1 = experiment: Bradykinin membrane receptor assay; type: binding; conditions: at 1 µM
NMB Receptor = target: T8, NMB Receptor (Rattus norvegicus, UniProt P24053); experiment: [3H]inositol phosphates (IP) in NMB-R transfected cells; type: cell-based
T8 construct: a full length NMB-preferring bombesin receptor clone generated from rat esophagus; expressed in transfected cells; host or cells: BALB 3T3 cells
T8 sequence (P24053 1-390): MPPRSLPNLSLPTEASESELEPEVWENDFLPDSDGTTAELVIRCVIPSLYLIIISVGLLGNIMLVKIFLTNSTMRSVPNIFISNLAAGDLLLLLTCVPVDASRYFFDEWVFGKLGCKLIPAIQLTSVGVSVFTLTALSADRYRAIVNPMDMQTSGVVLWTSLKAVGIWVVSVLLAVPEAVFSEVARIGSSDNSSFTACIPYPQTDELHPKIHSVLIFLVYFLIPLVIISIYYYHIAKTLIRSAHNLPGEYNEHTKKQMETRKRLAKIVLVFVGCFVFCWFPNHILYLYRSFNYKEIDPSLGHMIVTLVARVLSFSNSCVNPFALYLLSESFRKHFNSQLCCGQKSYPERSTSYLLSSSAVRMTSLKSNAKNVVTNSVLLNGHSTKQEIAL
Method in brief: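 BALB 3T3 cells stably expressing rat NMB receptor, labelled 48 h with myo-[2-3H]inositol, then 60 min at 37°C in LiCl-containing buffer with agonists, or with 3 nM NMB plus antagonists. Total [3H]IP isolated by anion-exchange chromatography.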

GRP Receptor = target: T9, GRP Receptor (Rattus norvegicus, UniProt P52500); experiment: Amylase release from rat pancreatic acini; type: cell-based
T9 construct: from tissue; host or cells: dispersed pancreatic acini

β1-adrenergic = target: T10, β1-adrenergic (Homo sapiens, UniProt P08588); experiment: beta1-adrenergic membrane receptor assay; type: binding; conditions: at 1 µM
T10 construct: receptors on plasma membranes on various tissues determined as described in METHODS; from tissue

adenosine1 = target: T11, adenosine1 (Rattus norvegicus, UniProt P25099); experiment: Adenosine membrane receptor assay; type: binding; conditions: at 1 µM
T11 construct: rat cerebral cortex (CCKB, PYY, neurotensin, ∝1-adrenergic, ∝2-adrenergic, muscarinic cholinergic, neural benzodiazepine, peripheral benzodiazepine, adenosine); from tissue; host or cells: rat cerebral cortex membranes
T11 sequence (P25099 whole entry): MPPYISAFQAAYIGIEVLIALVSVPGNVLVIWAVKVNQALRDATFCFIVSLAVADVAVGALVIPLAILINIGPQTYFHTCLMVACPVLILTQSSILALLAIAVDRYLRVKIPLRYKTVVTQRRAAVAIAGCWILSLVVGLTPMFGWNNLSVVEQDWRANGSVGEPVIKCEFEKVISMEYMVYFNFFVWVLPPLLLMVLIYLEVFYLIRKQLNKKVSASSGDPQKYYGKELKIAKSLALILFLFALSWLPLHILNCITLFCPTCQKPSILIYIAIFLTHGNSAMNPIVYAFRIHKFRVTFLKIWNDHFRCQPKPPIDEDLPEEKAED

T9 sequence (P52500 whole entry): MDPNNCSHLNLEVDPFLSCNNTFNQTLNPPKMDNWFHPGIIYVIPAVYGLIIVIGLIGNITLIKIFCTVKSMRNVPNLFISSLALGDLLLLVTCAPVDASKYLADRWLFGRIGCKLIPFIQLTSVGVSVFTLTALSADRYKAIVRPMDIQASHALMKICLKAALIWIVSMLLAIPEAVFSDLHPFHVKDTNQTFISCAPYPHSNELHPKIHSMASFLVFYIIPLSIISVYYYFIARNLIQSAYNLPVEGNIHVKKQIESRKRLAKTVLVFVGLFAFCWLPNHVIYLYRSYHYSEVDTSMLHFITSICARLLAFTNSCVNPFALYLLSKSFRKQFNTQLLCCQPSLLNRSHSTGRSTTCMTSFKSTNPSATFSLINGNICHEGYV
T1 sequence (P26684 21-426): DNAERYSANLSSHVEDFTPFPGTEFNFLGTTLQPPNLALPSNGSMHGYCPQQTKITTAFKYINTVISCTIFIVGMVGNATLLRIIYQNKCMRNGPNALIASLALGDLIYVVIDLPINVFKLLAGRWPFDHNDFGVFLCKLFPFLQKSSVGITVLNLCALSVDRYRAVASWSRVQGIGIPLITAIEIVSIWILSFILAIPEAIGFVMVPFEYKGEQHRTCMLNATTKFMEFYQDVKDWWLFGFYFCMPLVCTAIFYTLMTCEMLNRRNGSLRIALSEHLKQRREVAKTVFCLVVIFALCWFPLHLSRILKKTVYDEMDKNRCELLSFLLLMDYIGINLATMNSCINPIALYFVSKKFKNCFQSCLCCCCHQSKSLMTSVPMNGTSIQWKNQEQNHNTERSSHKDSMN
T4 sequence (P30551 whole entry): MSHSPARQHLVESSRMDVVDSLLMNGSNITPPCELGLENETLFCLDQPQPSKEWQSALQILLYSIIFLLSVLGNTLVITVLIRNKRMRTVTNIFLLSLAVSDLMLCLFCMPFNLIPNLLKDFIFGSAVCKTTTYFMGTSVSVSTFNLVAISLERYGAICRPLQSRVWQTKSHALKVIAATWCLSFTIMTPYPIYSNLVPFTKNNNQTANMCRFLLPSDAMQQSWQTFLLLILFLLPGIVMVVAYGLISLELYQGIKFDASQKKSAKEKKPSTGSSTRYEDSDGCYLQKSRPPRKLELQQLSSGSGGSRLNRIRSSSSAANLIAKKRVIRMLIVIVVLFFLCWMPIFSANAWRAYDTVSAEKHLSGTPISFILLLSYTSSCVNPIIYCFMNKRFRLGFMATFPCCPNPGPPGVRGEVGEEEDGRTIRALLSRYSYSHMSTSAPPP
T5 sequence (P33533 whole entry): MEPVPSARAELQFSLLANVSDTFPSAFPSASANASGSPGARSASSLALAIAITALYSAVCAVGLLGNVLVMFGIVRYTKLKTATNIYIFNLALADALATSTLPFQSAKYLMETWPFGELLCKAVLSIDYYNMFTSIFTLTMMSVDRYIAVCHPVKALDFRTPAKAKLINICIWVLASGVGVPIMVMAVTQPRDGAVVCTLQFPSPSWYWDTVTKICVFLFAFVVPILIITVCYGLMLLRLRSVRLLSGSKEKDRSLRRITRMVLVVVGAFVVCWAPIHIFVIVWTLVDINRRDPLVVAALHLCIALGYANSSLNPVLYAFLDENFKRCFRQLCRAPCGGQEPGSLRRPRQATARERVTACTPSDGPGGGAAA
T2 sequence (Q60492 whole entry): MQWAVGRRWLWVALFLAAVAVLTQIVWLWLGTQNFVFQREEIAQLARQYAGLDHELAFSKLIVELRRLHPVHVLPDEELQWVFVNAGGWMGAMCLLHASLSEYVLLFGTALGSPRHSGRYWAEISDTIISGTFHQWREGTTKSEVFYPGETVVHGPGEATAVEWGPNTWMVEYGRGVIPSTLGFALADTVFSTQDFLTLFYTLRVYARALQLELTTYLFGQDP
T7 sequence (P61169 whole entry): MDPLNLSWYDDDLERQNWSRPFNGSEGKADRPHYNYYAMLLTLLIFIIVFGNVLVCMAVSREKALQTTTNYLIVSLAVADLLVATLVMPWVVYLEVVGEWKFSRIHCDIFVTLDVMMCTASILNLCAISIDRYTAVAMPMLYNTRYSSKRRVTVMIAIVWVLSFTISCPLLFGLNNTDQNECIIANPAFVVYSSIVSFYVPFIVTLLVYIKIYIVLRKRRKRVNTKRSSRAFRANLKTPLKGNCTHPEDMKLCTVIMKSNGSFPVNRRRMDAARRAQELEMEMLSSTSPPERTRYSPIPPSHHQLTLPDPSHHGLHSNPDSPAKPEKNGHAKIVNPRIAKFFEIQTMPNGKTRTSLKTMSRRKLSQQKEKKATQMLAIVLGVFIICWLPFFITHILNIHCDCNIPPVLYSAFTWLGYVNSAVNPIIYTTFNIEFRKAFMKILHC
T6 sequence (P30553 whole entry): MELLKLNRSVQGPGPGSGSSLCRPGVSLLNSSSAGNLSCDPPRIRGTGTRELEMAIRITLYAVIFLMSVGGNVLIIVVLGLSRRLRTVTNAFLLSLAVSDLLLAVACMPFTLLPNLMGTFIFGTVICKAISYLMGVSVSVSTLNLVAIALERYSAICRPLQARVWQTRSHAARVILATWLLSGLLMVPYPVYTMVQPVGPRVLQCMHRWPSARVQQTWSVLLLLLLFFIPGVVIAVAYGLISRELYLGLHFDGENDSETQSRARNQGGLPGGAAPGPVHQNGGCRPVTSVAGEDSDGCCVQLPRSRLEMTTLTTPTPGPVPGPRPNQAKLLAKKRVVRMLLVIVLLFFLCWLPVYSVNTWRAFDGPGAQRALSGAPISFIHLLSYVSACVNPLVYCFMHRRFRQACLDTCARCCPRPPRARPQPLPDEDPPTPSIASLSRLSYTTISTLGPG
T10 sequence (P08588 whole entry): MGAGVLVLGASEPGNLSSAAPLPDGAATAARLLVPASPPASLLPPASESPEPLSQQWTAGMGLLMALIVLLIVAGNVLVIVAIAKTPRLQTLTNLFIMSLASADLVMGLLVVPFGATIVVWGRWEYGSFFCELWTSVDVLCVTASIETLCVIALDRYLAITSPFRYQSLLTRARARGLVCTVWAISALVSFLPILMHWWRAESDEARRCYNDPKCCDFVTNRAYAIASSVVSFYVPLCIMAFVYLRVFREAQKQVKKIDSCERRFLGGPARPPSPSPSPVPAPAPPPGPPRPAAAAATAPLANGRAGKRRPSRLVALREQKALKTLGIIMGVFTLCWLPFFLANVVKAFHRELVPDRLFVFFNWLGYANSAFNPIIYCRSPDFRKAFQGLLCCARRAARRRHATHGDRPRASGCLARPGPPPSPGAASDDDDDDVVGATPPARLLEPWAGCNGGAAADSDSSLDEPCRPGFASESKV

In the case of CC(C)[C@@H]1NC(=O)[C@H](CCCCN)NC(=O)[C@@H](Cc2c[nH]c3ccccc23)NC(=O)[C@H](Cc2ccc(O)cc2)NC(=O)[C@@H](NC(=O)[C@H](N)Cc2ccc3ccccc3c2)CSSC[C@@H](C(=O)N[C@@H](Cc2ccc3ccccc3c2)C(N)=O)NC1=O [Analog #1, D-Nal-Cys-Tyr-D-Trp-Lys-Val-Cys-Nal-NH2] (H-[d2Nal]CY[dW]KVC[2Nal]-NH2; disulfide 2-7; N-terminus assumed), the “inhibition of binding to muscarinic cholinergic” value (muscarinic cholinergic) is reported as “did not inhibit binding”, the “inhibition of binding to endothelinA” value (endothelinA) is reported as “did not inhibit binding” and the “inhibition of binding to sigma opioid” value (sigma opioid receptor) is reported as “did not inhibit binding”. The “inhibition of binding to N-methyl D-aspartate receptors” value [1] was “did not inhibit binding”, the “inhibition of binding to CCKA” value (CCKA receptors) was “did not inhibit binding” and the “[^3H]IP, Peptide Added ET-1 (0.1 nM)” value ([2]; C-6 glioblastoma cells, analog 10 µM plus ET-1 0.1 nM) was 10.9 ± 1.8 dpm x 10^3. For the same compound, the “effect on endothelin-1-simulated increases in [^3H]IP in C-6 cells” value [2] was “had no effect”, the “effect on endothelin-1-simulated increases in [^3H]IP in C-6 cells” value ([2]; listed as Cycle SS-octa) was “did not inhibit” and the “inhibition of binding to delta opioid” value (delta opioid) was “did not inhibit binding”. For the same compound, the “inhibition of binding to CCKB” value (CCKB) was “did not inhibit binding”, the “inhibition of binding to dopamine2” value (dopamine2) was “did not inhibit binding” and the “inhibition of binding to TRH” value (TRH receptor) was “did not inhibit binding”. For the same compound, the “inhibition of binding to bradykinin1” value (bradykinin1) was “did not inhibit binding”, the “regression slope of Schild plot” value (NMB Receptor; 1, 3 or 10 µM cyclo SS-octa on NMB dose-response curve) was 1.1(+0.2) and the “complete inhibition of NMB-stimulated increases in [^3H]IP at” value (NMB Receptor; NMB-R transfected cells) was 10 µM. The “detectible inhibition of NMB-stimulated increases in [^3H]IP at” value (NMB Receptor; NMB-R transfected cells) was 0.3 µM, the “effect on NMB-stimulated increase in [^3H]IP” value (NMB Receptor; NMB-R transfected cells, 3 nM NMB, peptide 10 µM) was “completely inhibited” and the “NMB-R Transfected Cells [^3H]IP Alone (10 µ M)” value (NMB Receptor; analog 10 µM alone, no-additive control 13 ± 3) was 12 ± 2 dpm x 10^3. For the same compound, the “NMB-R Transfected Cells [^3H]IP Plus NMB (3 nM)” value (NMB Receptor; analog 10 µM plus NMB 3 nM, NMB without analog 186 ± 58) was 8 ± 4 dpm x 10^3, the Kd (NMB Receptor; rightward shift of NMB dose-response curve, NMB-R transfected cells, read-out: affinity for the NMB receptor from Schild plot) was 231 ± 43 nM and the “Rat Pancreatic Acini Amylase Release Alone (10µM)” value (GRP Receptor; analog 10 µM alone, no-additive control 4 ± 1) was 5 ± 1 % total. The “Rat Pancreatic Acini Amylase Release Plus Bn(0.3 nM)” value (GRP Receptor; analog 10 µM plus Bn 0.3 nM, Bn without analog 15 ± 1) was 15 ± 2 % total, the “effect on Bn-stimulated amylase release” value (GRP Receptor; rat pancreatic acini, Bn 0.3 nM, peptide 10 µM) was “did not inhibit” and the “inhibition of binding to β1-adrenergic” value (β1-adrenergic) was “did not inhibit binding”. The “inhibition of binding to adenosine1” value (adenosine1) was “did not inhibit binding”.
